In US11560372B2, “Heterocyclic compounds useful as modulators of acetylcholine receptors” (TAKEDA PHARMACEUTICAL COMPANY LIMITED, priority 2017, dated 2023):

Experiments:
[1] = target: T1, human M1 receptor (hCHRM1) (Homo sapiens, UniProt P11229); test: Measurement of M1 receptor positive allosteric modulator (M1PAM) activity, calcium fluorescence in CHO-K1 cells; type: cell-based; conditions: for activity (%) at 10 μM: 10 μM test compound, 100% = acetylcholine final concentration 1 μM, 0% = DMSO; for EC50: inflection point of concentration-dependent curve, in the presence of acetylcholine at EC20 concentration (final 0.8-1.0 nM), read-out: IP value
T1 construct: expressed in transfected cells
T1 sequence (P11229 1-460): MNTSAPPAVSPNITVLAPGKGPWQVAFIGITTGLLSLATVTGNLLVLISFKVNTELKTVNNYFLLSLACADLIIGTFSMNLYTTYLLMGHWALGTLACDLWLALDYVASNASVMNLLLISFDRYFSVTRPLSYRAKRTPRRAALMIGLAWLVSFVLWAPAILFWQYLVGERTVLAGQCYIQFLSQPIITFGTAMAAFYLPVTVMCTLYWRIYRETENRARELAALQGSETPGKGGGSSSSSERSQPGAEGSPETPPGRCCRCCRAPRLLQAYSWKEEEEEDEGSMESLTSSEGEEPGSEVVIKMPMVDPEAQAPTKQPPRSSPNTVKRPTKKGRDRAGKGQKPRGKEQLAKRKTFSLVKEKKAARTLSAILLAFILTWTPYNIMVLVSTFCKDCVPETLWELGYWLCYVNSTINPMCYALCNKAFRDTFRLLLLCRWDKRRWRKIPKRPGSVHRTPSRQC
Summary of the method: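 CHO-K1 cells stably expressing human M1 loaded with Fluo-4 AM, then given compound plus acetylcholine at EC20 (final 0.8-1.0 nM). Calcium fluorescence read for 1 min; activity normalized to 1 μM acetylcholine (100%) and DMSO (0%), with IP taken as inflection point of concentration curve.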

Male ICR mice = test: Mouse defecation experiment; type: in vivo; conditions: mean±standard error
Description: Mouse Defecation Experiment
Male ICR mice (6-7 weeks old) were used after an acclimation period for about 1 week. A test drug (1 mg/kg or 3 mg/kg) was suspended in 0.5% methylcellulose solution and orally administered at a volume of 10 mL/kg, and the number of feces 2 hr later was counted. Only 0.5% methylcellulose was administered to a solvent administration group.

MDR1 = target: T2, MDR1 (Homo sapiens, UniProt P08183); test: MDR1 membrane permeability test; type: in vitro ADME; conditions: pH 7.4, efflux ratio (ER), Papp B to A / A to B, human MDR1-expressing LLC-PK1 cells, read-out: MDR1 substrate screening 1 μM (MDRSUB1)/Ratio (NUMBER)
T2 construct: expressed in transfected cells
Summary of the method: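 Human MDR1-expressing LLC-PK1 cells were grown for 3 days on 96-well polyethylene terephthalate Transwell supports (0.4 μm pores, 0.143 cm^2) seeded at 3.45×10^4 cells/well. After a 30 min preincubation in M199 medium with 10 mmol/L HEPES and 1% BSA (pH 7.4), drug was added apically or basolaterally. After 1 hr at 37° C, the opposite side was sampled and analyzed by LC-MS/MS. Efflux ratio was calculated from Papp B to A versus A to B.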

T2 sequence (P08183 whole entry): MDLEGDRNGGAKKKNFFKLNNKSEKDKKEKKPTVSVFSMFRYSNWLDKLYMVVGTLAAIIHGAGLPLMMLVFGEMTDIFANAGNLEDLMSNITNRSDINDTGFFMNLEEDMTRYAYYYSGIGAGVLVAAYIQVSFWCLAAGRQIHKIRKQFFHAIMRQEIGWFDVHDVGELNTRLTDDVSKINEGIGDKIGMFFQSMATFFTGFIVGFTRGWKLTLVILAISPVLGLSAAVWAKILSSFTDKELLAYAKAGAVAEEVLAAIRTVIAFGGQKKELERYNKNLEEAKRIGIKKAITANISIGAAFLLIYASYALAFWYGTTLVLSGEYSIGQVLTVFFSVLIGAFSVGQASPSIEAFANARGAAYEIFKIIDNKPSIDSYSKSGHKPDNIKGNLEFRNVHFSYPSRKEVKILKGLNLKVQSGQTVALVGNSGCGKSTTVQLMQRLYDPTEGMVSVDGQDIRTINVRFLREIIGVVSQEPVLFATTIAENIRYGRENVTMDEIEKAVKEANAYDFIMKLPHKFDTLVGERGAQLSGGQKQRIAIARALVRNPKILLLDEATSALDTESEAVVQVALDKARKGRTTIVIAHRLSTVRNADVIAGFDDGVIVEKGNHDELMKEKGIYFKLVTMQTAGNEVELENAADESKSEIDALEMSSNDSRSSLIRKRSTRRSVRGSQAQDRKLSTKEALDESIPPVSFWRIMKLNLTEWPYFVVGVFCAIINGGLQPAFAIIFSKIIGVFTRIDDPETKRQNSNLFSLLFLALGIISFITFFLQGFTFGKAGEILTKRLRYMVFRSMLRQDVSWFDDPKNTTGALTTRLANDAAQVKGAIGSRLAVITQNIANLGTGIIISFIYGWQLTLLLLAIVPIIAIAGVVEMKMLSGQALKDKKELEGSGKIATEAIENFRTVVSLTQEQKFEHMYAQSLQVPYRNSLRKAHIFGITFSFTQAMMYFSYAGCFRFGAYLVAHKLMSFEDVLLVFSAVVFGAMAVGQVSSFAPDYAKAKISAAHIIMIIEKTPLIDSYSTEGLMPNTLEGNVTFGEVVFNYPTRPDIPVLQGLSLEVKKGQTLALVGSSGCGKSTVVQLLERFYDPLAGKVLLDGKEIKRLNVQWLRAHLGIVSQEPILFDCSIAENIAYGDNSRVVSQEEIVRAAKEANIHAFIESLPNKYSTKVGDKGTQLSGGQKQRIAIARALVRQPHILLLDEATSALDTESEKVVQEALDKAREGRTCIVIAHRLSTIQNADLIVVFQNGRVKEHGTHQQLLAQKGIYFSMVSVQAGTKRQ

| Compound | activity (%) at 10 μM [1] [%] | EC50 [1] [nM] | efflux ratio at 1 hr, 1 μM (MDR1) | number of feces 2 hr later (Male ICR mice; 1 mg/kg orally) | number of feces 2 hr later (Male ICR mice; 3 mg/kg orally) |
| --- | --- | --- | --- | --- | --- |
| Cc1c(Cc2ccc(-c3cnn(C)c3)nc2)cc2c(=O)n([C@H]3CCOC[C@@H]3O)cnc2c1C [Example 6, 1,5-anhydro-2,3-dideoxy-3-(7,8-dimethyl-6-((6-(1-methyl-1H-pyrazol-4-yl)pyridin-3-yl)methyl)-4-oxoquinazolin-3(4H)-yl)-L-threo-pentitol] | 99 | 0.96 | 11 | 7.2 ± 1.8 | 8.2 ± 1.0 |
| Cc1c(Cc2ccc(C(=O)NC[C@H]3CCCO3)c(F)c2)cc2c(=O)n([C@H]3CCOC[C@@H]3O)cnc2c1C [Example 81, 1,5-anhydro-2,3-dideoxy-3-(6-(3-fluoro-4-(((2R)-tetrahydrofuran-2-ylmethyl)carbamoyl)benzyl)-7,8-dimethyl-4-oxoquinazolin-3(4H)-yl)-L-threo-pentitol] | 110 | 3.7 | 8.6 | – | – |
| CNC(=O)c1ccc(Cc2cc3c(=O)n([C@H]4CCOC[C@@H]4O)cnc3c(C)c2C)cc1F [Example 3, 1,5-anhydro-2,3-dideoxy-3-(6-(3-fluoro-4-(methylcarbamoyl)benzyl)-7,8-dimethyl-4-oxoquinazolin-3(4H)-yl)-L-threo-pentitol] | 103 | 1 | 6 | 14.0 ± 1.0 | – |
| Cc1nn(C)cc1-c1ccc(Cc2cc3c(=O)n([C@H]4CCOC[C@@H]4O)cnc3c(C)c2C)cn1 [Example 5, 1,5-anhydro-2,3-dideoxy-3-(6-((6-(1,3-dimethyl-1H-pyrazol-4-yl)pyridin-3-yl)methyl)-7,8-dimethyl-4-oxoquinazolin-3(4H)-yl)-L-threo-pentitol] | 97 | 1.5 | 15 | 5.6 ± 1.0 | 8.4 ± 2.6 |

Further lines, with some results ahead:

| activity (%) at 10 μM [1] [%] | EC50 [1] [nM] | efflux ratio at 1 hr, 1 μM (MDR1) | Compound | number of feces 2 hr later (Male ICR mice; 1 mg/kg orally) | number of feces 2 hr later (Male ICR mice; 3 mg/kg orally) |
| --- | --- | --- | --- | --- | --- |
| 104 | 1.5 | 18 | Cc1c(Cc2ccc(-c3cn(C)nn3)nc2)cc2c(=O)n([C@H]3CCOC[C@@H]3O)cnc2c1C [Example 2, 1,5-anhydro-2,3-dideoxy-3-(7,8-dimethyl-6-((6-(1-methyl-1H-1,2,3-triazol-4-yl)pyridin-3-yl)methyl)-4-oxoquinazolin-3(4H)-yl)-L-threo-pentitol] | 5.0 ± 0.7 | 11.3 ± 0.6 |
| 103 | 1.6 | 4.6 | CNC(=O)c1ccc(Cc2cc3c(=O)n([C@H]4CCOC[C@@H]4O)nnc3c(Cl)c2C)cc1F [Example 19, 1,5-anhydro-3-(8-chloro-6-(3-fluoro-4-(methylcarbamoyl)benzyl)-7-methyl-4-oxo-1,2,3-benzotriazin-3(4H)-yl)-2,3-dideoxy-L-threo-pentitol] | 12.6 ± 1.2 | – |
| 106 | 1.8 | 7 | COCCNC(=O)c1ccc(Cc2cc3c(=O)n([C@H]4CCOC[C@@H]4O)cnc3c(C)c2C)cc1F [Example 66, 1,5-anhydro-2,3-dideoxy-3-(6-(3-fluoro-4-((2-methoxyethyl)carbamoyl)benzyl)-7,8-dimethyl-4-oxoquinazolin-3(4H)-yl)-L-threo-pentitol] | 9.3 ± 1.2 | – |
